Test results as given in US9902986B2, “Enterobactin conjugates and uses thereof” (Massachusetts Institute of Technology, priority 2013, dated 2018).

What was measured:
[1] = molecular target: FepA (Escherichia coli, UniProt P05825); conditions: E. coli outer membrane transporter; cited from earlier work
[2] = molecular target: Lipocalin-2 (lcn2) (Homo sapiens, UniProt P80188); conditions: cited from earlier work
[3] = test system: P. aeruginosa K648 (pvd-, pch-); assay type: cell-based, Pseudomonas aeruginosa
Method: (§1) General microbiology methods are as described herein or according to processes known in the art. […] Bacterial growth was assayed by measuring OD600 using a BioTek Synergy HT plate reader. Each well condition was prepared in duplicate and three independent replicates of each assay were conducted on different days. The resulting mean OD600 are reported and the error bars are the standard deviation of the mean obtained from the three independent replicates.
(§2) It was next sought to determine whether the enterobactin-cargo conjugates provided growth recovery for Pseudomonas aeruginosa PAO1. This Gram-negative opportunistic human pathogen synthesizes and exports two siderophores, pyoverdine (pvd) and pyochelin (pch), and employs multiple additional mechanisms for iron acquisition.^72,73 P. aeruginosa utilizes enterobactin as a xenosiderophore, and the genes pfeA^74,75 and pirA^76 encode outer membrane enterobactin transporters. Similar to the E. coli experiments, P. aeruginosa strains deficient in siderophore production or utilization were used in growth recovery assays.

[4] = three catecholate groups; cited from earlier work
[5] = test system: E. coli ATCC 33475 (ent-); assay type: cell-based, Escherichia coli; conditions: 10 μM
Method: as §1
(§3) Three non-pathogenic E. coli strains were employed that are defective in enterobactin synthesis, enterobactin transport, or ferric enterobactin utilization in growth recovery assays. E. coli ATCC 33475 (ent-) cannot biosynthesize enterobactin, but retains the capacity to import and metabolize the siderophore.^71 E. coli H1187 (fepA-) lacks the outer membrane enterobactin receptor. E. coli K-12 JW0576 (fes-) can accumulate ferric enterobactin, but cannot release the iron because it is deficient in the enterobactin esterase Fes. As a result of these defects in iron metabolism, all three strains grow poorly under conditions of iron limitation.^71 The iron chelator 2,2′-dipyridyl (dipyridyl, DP) was used to generate iron-deficient conditions and promote expression of siderophore transport machinery in the growth recovery assays.

[6] = test system: P. aeruginosa K407 (pvd-, pFr-); test: Growth recovery assay, P. aeruginosa (pfeA-); assay type: cell-based, Pseudomonas aeruginosa; conditions: 600 μM DP; for growth inhibition of P. aeruginosa (pfeA-): micromolar concentrations
Method: as §1, §2

[7] = test system: human colon epithelial T84 cells; test: Cytotoxicity study using MTT; conditions: 24 h; for effect on viability of T84 cells (MTT): concentrations up to 10 μM
Method: Colon epithelial T84 cell line (purchase from ATCC) were grown in DMEM/F12 medium containing penicillin (100 I.U./mL) and streptomycin (100 μg/mL). The cells were passed and plated in 96-well flat-bottom plates ˜16 h before treatment. Each well contained 90 µL of the cell culture at a density of 10^5 cells/mL. Stock solutions of the tested conjugates (e.g., Ent-Amp) were prepared in sterile filtered 10% DMSO/water, and 10 μL of the each solution was added to each well. The plate was incubated at 37° C. and under 5% CO2 for 24 h and 20 μL of MTT (5 mg/mL in sterile PBS) was added to each well. The plate was incubated at 37° C. for another 4 h, and the supernatant was removed from each well. DMSO (100 μL) was added to the wells to afford a purple solution, and the absorbance at 550 nm was recorded by using a plate reader. Blank readings were generated by wells that only contain the growth medium but no cells. The assay was repeated in three independent trials, and the resulting mean and standard errors are reported. […] Ent-Amp, Ent, and Amp were incubated with human colon epithelial T84 cells for 24 h.
In another exemplary experiment, the human colon epithelial T84 cell line was purchased from ATCC and cultured in 1:1 DMEM/F12 medium with 10% fetal bovine serum, 1% penicillin, and streptomycin (v/v, ATCC). The cells were grown to approximately 95% confluency and treated with 3 mL of trypsin-EDTA (Corning). A 12-mL portion of fresh medium was added to the detached cells, and the T84 cell suspension was centrifuged (600 rpm×5 min, 37° C.). The supernatant was discarded, and the cell pellet was resuspended in 6 mL of the fresh culture media. The concentration of cells was quantified by using a manual hemocytometer (VWR International) and adjusted to 1×10^5 cells/mL. A 90-μL aliquot of T84 cells were then added to 96-well plates and incubated at 37° C. and 5% CO2 for 24 h. […] DMSO (100 μL) was added to each well and the absorbance at 550 nm was recorded by using a plate reader. Blank readings were recorded on wells that only contained the medium. […]

[8] = test system: E. coli K-12 JW0576 (fes-); test: Growth recovery assay, E. coli (fes-); assay type: cell-based, Escherichia coli; conditions: 200 μM DP
Method: as §1, §3

[9] = test system: E. coli H1187 (fepA-); test: Growth recovery assay, E. coli (fepA-); assay type: cell-based, Escherichia coli; conditions: 200 μM DP
Method: as §1, §3

Lipocalin-2 (lcn2), sequence (P80188 21-198): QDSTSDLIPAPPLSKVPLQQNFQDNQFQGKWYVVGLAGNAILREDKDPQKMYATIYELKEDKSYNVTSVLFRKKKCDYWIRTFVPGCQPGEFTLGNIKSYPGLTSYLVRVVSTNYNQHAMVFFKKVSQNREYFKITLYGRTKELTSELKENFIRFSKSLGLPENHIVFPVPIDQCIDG
FepA, sequence (P05825 23-746): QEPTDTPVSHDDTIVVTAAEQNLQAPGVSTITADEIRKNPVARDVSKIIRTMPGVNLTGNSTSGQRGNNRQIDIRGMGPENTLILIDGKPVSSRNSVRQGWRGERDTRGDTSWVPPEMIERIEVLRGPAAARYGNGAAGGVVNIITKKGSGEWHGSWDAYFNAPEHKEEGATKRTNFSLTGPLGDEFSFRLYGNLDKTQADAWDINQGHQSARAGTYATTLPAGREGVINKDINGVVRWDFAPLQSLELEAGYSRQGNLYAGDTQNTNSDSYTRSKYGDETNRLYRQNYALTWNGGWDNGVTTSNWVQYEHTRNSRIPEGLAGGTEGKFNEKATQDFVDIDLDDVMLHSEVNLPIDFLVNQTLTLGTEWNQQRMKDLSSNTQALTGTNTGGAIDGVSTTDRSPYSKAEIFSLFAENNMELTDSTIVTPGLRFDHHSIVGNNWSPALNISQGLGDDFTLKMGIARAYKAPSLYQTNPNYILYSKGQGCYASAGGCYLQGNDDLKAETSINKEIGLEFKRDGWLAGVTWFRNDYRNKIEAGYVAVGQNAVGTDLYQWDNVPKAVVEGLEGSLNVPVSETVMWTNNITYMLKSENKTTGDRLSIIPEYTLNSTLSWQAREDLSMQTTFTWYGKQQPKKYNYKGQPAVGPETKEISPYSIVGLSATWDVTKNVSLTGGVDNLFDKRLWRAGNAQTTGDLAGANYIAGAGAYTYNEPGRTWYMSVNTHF

Molecule: O=C(N[C@H]1COC(=O)[C@@H](NC(=O)c2cccc([O-])c2[O-])COC(=O)[C@@H](NC(=O)c2cccc([O-])c2[O-])COC1=O)c1cccc([O-])c1[O-].[Fe+3] [ferric enterobactin]
- affinity of FepA for ferric enterobactin [1]: sub-nanomolar affinity
- affinity of lcn2 for ferric enterobactin [2]: low-nanomolar affinity

Molecule: O=C(N[C@H]1COC(=O)[C@@H](NC(=O)c2cccc(O)c2O)COC(=O)[C@@H](NC(=O)c2cccc(O)c2O)COC1=O)c1cccc(O)c1O [L-Ent, Enterobactin]
- OD600 of P. aeruginosa (pvd-, pch-) culture ([3]; low-micromolar concentrations, 50% MHB, 600 μM DP, 30° C., t=19 h): ~0.40
- Ka for Fe(III) coordination [4]: ~10^49 M^−1
- OD600 of E. coli (ent-) culture ([5]; 50% MHB, 200 μM DP, 30° C., t=19 h): ~0.2
- growth enhancement of P. aeruginosa (pfeA-) [6]: no growth enhancement
- growth inhibition of P. aeruginosa (pfeA-) [6]: growth inhibition at micromolar concentrations
- decrease of percent survival of T84 cells ([7]; 10 μM): approximately 30%

Molecule: Vancomycin-PEG-Ent [conjugate 42]
- effect on growth of P. aeruginosa (pvd-, pch-) ([3]; ±DP): growth inhibitory effect
- effect on E. coli growth ([5]; +DP): inhibited the growth of E. coli

Molecule: CC1(C)S[C@@H]2[C@H](NC(=O)[C@H](N)c3ccccc3)C(=O)N2[C@H]1C(=O)O [Amp, Ampicillin]
- effect on viability of T84 cells (MTT) [7]: did not affect the viability of human cells significantly

Molecule: O=C(NCCOCCOCCOCCNC(=O)C1CCCCC1)c1cc(O)c(O)c(C(=O)N[C@H]2COC(=O)[C@@H](NC(=O)c3cccc(O)c3O)COC(=O)[C@@H](NC(=O)c3cccc(O)c3O)COC2=O)c1 [conjugate 30, N^3-((3S,7S,11S)-7,11-Bis(2,3-dihydroxybenzamido)-2,6,10-trioxo-1,5,9-trioxacyclododecan-3-yl)-N^1-(1-cyclohexyl-1-oxo-5,8,11-trioxa-2-azatridecan-13-yl)-4,5-dihydroxyisophthalamide]
- growth restoration of E. coli (fes-) [8]: No growth restoration
- growth restoration of E. coli (fepA-) [9]: No growth restoration
- growth enhancement of P. aeruginosa (pfeA-) [6]: no growth enhancement
- growth inhibition of P. aeruginosa (pfeA-) [6]: growth inhibition at micromolar concentrations

Molecule: O=C(N[C@H]1COC(=O)[C@@H](NC(=O)c2cccc([O-])c2[O-])COC(=O)[C@@H](NC(=O)c2cccc([O-])c2[O-])COC1=O)c1cccc([O-])c1[O-].[Fe+3] [Ent with pre-loaded Fe]
- effect on viability of T84 cells (MTT) [7]: did not exhibit this effect

Molecule: CC(C)(C)OC(=O)NCCOCCOCCOCCNC(=O)c1cc(O)c(O)c(C(=O)N[C@H]2COC(=O)[C@@H](NC(=O)c3cccc(O)c3O)COC(=O)[C@@H](NC(=O)c3cccc(O)c3O)COC2=O)c1 [conjugate 29, Tert-butyl(1-(3-(((3S,7S,11S)-7,11-bis(2,3-dihydroxybenzamido)-2,6,10-trioxo-1,5,9-trioxacyclododecan-3-yl)carbamoyl)-4,5-dihydroxyphenyl)-1-oxo-5,8,11-trioxa-2-azatridecan-13-yl)carbamate]
- growth restoration of E. coli (fes-) [8]: No growth restoration
- growth restoration of E. coli (fepA-) [9]: No growth restoration
